Experiment [1] has as its target T1, GDP-loaded K-Ras (1-169) G12D, C51S, C80L, C118S (Homo sapiens, UniProt P01116, C118S/C51S/C80L/G12D).
T1 construct: GDP-loaded K-Ras (1-169) G12D, C51S, C80L, C118S
The experiment in a line: K-Ras G12D(GDP) cross-linking assay (conjugate formation, TOF mass spectrometry). It is filed as binding. The arrangement: key: 0: No observed x-linking; +: 0 < x ≤ 20; ++: 20 < x ≤ 40; +++: 40 < x ≤ 100. The note with it: Table 5; percent covalently modified K-Ras by MS; room temperature; typical compound conc. 2, 10, 25 μM, endpoints 1 and 24 h. The procedure: (§1) Protocol: K-Ras G12D(GDP) Cross-Linking Assay
(§2) Note: while the following protocol outlines the procedure for K-Ras G12D(GDP), a person of skill in the art may substitute other Ras proteins, and may also substitute a non-hydrolyzable GTP analog for GDP to study GTP bound Ras protein.
(§3) GDP-loaded K-Ras (1-169) G12D, C51S, C80L, C118S and GDP-loaded K-Ras (1-169) C51S, C80L, C118S were adjusted to 50 μM in K-Ras assay buffer (12.5 mM HEPES, 75 mM NaCl and 1 mM MgCl2 at pH 7.4). A 5 μL aliquot of each protein solution was added to each well of a 96-well microplate containing 40 μL of assay buffer. Initial compound stocks were prepared in DMSO at 100 times their final assay concentration. Compounds were then diluted 10-fold into K-Ras assay buffer to 10 times their final concentration. A 5 μL aliquot of each diluted compound solution was added to each protein solution in the 96-well microplate to initiate the reaction, which then proceeded at room temperature. Typical final compound concentrations were 2, 10, and 25 μM. At each time point, the reactions were analyzed immediately or quenched with 5 μL of a 5% formic acid solution and kept at 4° C. until analysis. Typical assay endpoints were 1 and 24 h.
(§4) Data collection took place on an Agilent 6230 TOF Mass Spectrometer. Complete reactions were injected onto a C4 reverse-phase column to separate protein from buffer components prior to entering the mass spectrometer. The proteins were eluted from the column by increasing acetonitrile fraction in the mobile phase and fed directly into the mass analyzer. Initial analysis of raw data took place in Agilent MassHunter BioConfirm software and consisted of deconvolution of multiple protein charge states with the maximum entropy algorithm, with a mass step of 1 Da. The heights of all deconvoluted protein masses were exported for further data analysis. The percent modification of each protein was then determined by calculating the peak height of the covalently modified K-Ras species as a percentage of the sum total of K-Ras protein peak height.

For experiment [2], the target named is T2, GDP-loaded K-Ras (1-169) C51S, C80L, C118S (Homo sapiens, UniProt P01116, C118S/C51S/C80L).
T2 construct: GDP-loaded K-Ras (1-169) C51S, C80L, C118S
The experiment in a line: K-Ras WT (GDP) cross-linking assay (conjugate formation, TOF mass spectrometry). The class given is binding. The arrangement: key: 0: No observed x-linking; +: 0 < x ≤ 20; ++: 20 < x ≤ 40; +++: 40 < x ≤ 100. To be noted: Table 5; percent covalently modified K-Ras by MS; room temperature; typical compound conc. 2, 10, 25 μM, endpoints 1 and 24 h. The procedure: as §1, §2, §3, §4

With `Cc1ccc2[nH]ncc2c1-c1cc2ncnc3c2c(c1Cl)OCC[C@@H]1CN(C(=O)[C@@H]2CN2)CCN31` [Example 123], the “G12D x-linking (%)” value in experiment [1] was found to be 0. Further, the “WT x-linking (%)” value in experiment [2] is given as 0.
As to `Cc1ccnc(C(C)C)c1-n1c(=O)nc(N2[C@H](C)CN(C(=O)[C@@H]3CN3)C[C@@H]2C)c2cc(F)c(-c3c(O)cccc3F)nc21` [Example 140], the “G12D x-linking (%)” value in experiment [1] stood at 0. Moreover, the “WT x-linking (%)” value in experiment [2] is listed as 0.
Turning to `CN1CCC[C@H]1COc1nc2c(c(N3CCN(C(=O)[C@@H]4CN4)[C@@H](CC#N)C3)n1)CCN(c1cc(O)cc3ccccc13)C2` [Example 115], the “G12D x-linking (%)” value in experiment [1] is given as “+ (0 < x ≤ 20)”. For the same compound, the “WT x-linking (%)” value in experiment [2] is recorded as 0.
The corresponding values for `CO[C@H]1CCC[C@H]1N=C=NC1CCN(c2nc(OC[C@@H]3CCCN3C)nc3c2CCN(c2cccc4cccc(C)c24)C3)CC1` (single isomer, unassigned) [Example 150] are “+ (0 < x ≤ 20)” and “+ (0 < x ≤ 20)”.
The corresponding values for `Cc1cccc2cccc(N3CCc4c(nc(OC[C@@H]5CCCN5C)nc4N4CCN(C(=O)[C@@H]5CN5C)[C@@H](CC#N)C4)C3)c12` (stereo partly drawn) [Example 107, 2-((S)-1-((S)-1-methylaziridine-2-carbonyl)-4-(7-(8-methylnaphthalen-1-yl)-2-(((S)-1-methylpyrrolidin-2-yl)methoxy)-5,6,7,8-tetrahydropyrido[3,4-d]pyrimidin-4-yl)piperazin-2-yl)acetonitrile] are “+ (0 < x ≤ 20)” and 0.
The corresponding values for `CC(=O)N1C[C@H]1CN1CCN(c2nc(OC[C@@H]3CCCN3C)nc3c2CCN(c2cccc4cccc(C)c24)C3)C[C@@H]1CC#N` [Example 118, 2-((S)-1-(((R)-1-acetylaziridin-2-yl)methyl)-4-(7-(8-methylnaphthalen-1-yl)-2-(((S)-1-methylpyrrolidin-2-yl)methoxy)-5,6,7,8-tetrahydropyrido[3,4-d]pyrimidin-4-yl)piperazin-2-yl)acetonitrile] are “+ (0 < x ≤ 20)” and “+ (0 < x ≤ 20)”.
`COc1ccccc1CN=C=N[C@@H]1CCN(c2nc(OC[C@@H]3CCCN3C)nc3c2CCN(c2cccc4cccc(C)c24)C3)C[C@@H]1CC#N` [Example 102, 2-((3S,4R)-4-((((2-methoxybenzyl)imino)methylene)amino)-1-(7-(8-methylnaphthalen-1-yl)-2-(((S)-1-methylpyrrolidin-2-yl)methoxy)-5,6,7,8-tetrahydropyrido[3,4-d]pyrimidin-4-yl)piperidin-3-yl)acetonitrile]: in experiment [1], the “G12D x-linking (%)” value is “+ (0 < x ≤ 20)”. Besides, in experiment [2], the “WT x-linking (%)” value was “+ (0 < x ≤ 20)”.
Take `Cc1ccnc(C(C)C)c1-n1c(=O)nc(N2C[C@H](C)N(C(=O)[C@@H]3CN3)C[C@H]2C)c2cc(F)c(-c3c(O)cccc3F)nc21` [Example 144]: the “G12D x-linking (%)” value in experiment [1] is recorded as 0. Moreover, in experiment [2], the “WT x-linking (%)” value was 0.
Take `COC(=O)[C@H]1CN1C(=O)N1CCN(c2nc(OC[C@@H]3CCCN3C)nc3c2CCN(c2cccc4cccc(C)c24)C3)C[C@@H]1CC#N` [Example 108, methyl (R)-1-((S)-2-(cyanomethyl)-4-(7-(8-methylnaphthalen-1-yl)-2-(((S)-1-methylpyrrolidin-2-yl)methoxy)-5,6,7,8-tetrahydropyrido[3,4-d]pyrimidin-4-yl)piperazine-1-carbonyl)aziridine-2-carboxylate]: in experiment [1], the “G12D x-linking (%)” value was “+ (0 < x ≤ 20)”. Also, the “WT x-linking (%)” value in experiment [2] is reported as “+ (0 < x ≤ 20)”.
On to `COc1ccccc1CN=C=N[C@H]1C[C@H](Nc2nc(OC[C@@H]3CCCN3C)nc3c2CCN(c2cccc4cccc(C)c24)C3)C1` [Example 104, N-((1R,3S)-3-((((2-methoxybenzyl)imino)methylene)amino)cyclobutyl)-7-(8-methylnaphthalen-1-yl)-2-(((S)-1-methylpyrrolidin-2-yl)methoxy)-5,6,7,8-tetrahydropyrido[3,4-d]pyrimidin-4-amine], for which, in experiment [1], the “G12D x-linking (%)” value is recorded as “+ (0 < x ≤ 20)”. Further, the “WT x-linking (%)” value in experiment [2] is reported as “+ (0 < x ≤ 20)”.
In the case of `Cc1ccnc(C(C)C)c1-n1c(=O)nc(N2[C@H](C)CN(C(=O)[C@H]3CN3)C[C@@H]2C)c2cc(F)c(-c3c(O)cccc3F)nc21` [Example 135], the “G12D x-linking (%)” value in experiment [1] was found to be 0. Besides, in experiment [2], the “WT x-linking (%)” value is on record as 0.
Regarding `Cc1cccc2cccc(N3CCc4c(nc(OC[C@@H]5CCCN5C)nc4N4CCN(C(=O)[C@H]5CN5Cc5ccccc5)[C@@H](CC#N)C4)C3)c12` (stereo partly drawn) [Example 96, 2-((S)-1-((R)-1-benzylaziridine-2-carbonyl)-4-(7-(8-methylnaphthalen-1-yl)-2-(((S)-1-methylpyrrolidin-2-yl)methoxy)-5,6,7,8-tetrahydropyrido[3,4-d]pyrimidin-4-yl)piperazin-2-yl)acetonitrile], in experiment [1], the “G12D x-linking (%)” value is “+ (0 < x ≤ 20)”. Besides, the “WT x-linking (%)” value in experiment [2] is given as “+ (0 < x ≤ 20)”.
As for `Cc1ccc2[nH]ncc2c1N1CCc2c(nc(OC[C@@H]3CCCN3C)nc2N2CCN(C(=O)[C@@H]3CN3)[C@@H](CC#N)C2)C1` [Example 111, 2-((S)-1-((S)-aziridine-2-carbonyl)-4-(7-(5-methyl-1H-indazol-4-yl)-2-(((S)-1-methylpyrrolidin-2-yl)methoxy)-5,6,7,8-tetrahydropyrido[3,4-d]pyrimidin-4-yl)piperazin-2-yl)acetonitrile], the “G12D x-linking (%)” value in experiment [1] was “+ (0 < x ≤ 20)”. In addition, the “WT x-linking (%)” value in experiment [2] was 0.
The corresponding values for `Cc1ccnc(C(C)C)c1-n1c(=O)nc(N2C[C@H](C)N(C(=O)[C@H]3CN3)C[C@H]2C)c2cc(F)c(-c3c(O)cccc3F)nc21` [Example 139] are 0 and 0.
The corresponding values for `Cc1cccc2cccc(N3CCc4c(nc(OC[C@@H]5CCCN5C)nc4N4CC[C@H](NC(=O)[C@@H]5CN5)[C@@H](CC#N)C4)C3)c12` [Example 127] are “+ (0 < x ≤ 20)” and “+ (0 < x ≤ 20)”.
The corresponding values for `Cc1cccc2cccc(N3CCc4c(nc(OC[C@@H]5CCCN5C)nc4N4CC[C@@H](NC(=O)[C@H]5CN5)[C@@H](CC#N)C4)C3)c12` [Example 125] are “+ (0 < x ≤ 20)” and “+ (0 < x ≤ 20)”.
For `COCC1(N=C=N[C@H]2C[C@H](Nc3nc(OC[C@@H]4CCCN4C)nc4c3CCN(c3cccc5cccc(C)c35)C4)C2)CC1` [Example 152], in experiment [1], the “G12D x-linking (%)” value was “+++ (40 < x ≤ 100)”. Also, in experiment [2], the “WT x-linking (%)” value was “+ (0 < x ≤ 20)”.
Turning to `COC(=O)[C@@H]1CN1C(=O)N1CCN(c2nc(OC[C@@H]3CCCN3C)nc3c2CCN(c2cccc4cccc(C)c24)C3)C[C@@H]1CC#N` [Example 109, methyl (S)-1-((S)-2-(cyanomethyl)-4-(7-(8-methylnaphthalen-1-yl)-2-(((S)-1-methylpyrrolidin-2-yl)methoxy)-5,6,7,8-tetrahydropyrido[3,4-d]pyrimidin-4-yl)piperazine-1-carbonyl)aziridine-2-carboxylate], the “G12D x-linking (%)” value in experiment [1] was “+ (0 < x ≤ 20)”. Further, the “WT x-linking (%)” value in experiment [2] is “+ (0 < x ≤ 20)”.
On to `Cc1cccc2cccc(N3CCc4c(nc(OC[C@@H]5CCCN5C)nc4N4CC[C@H](NC(=O)C5CN5)C4)C3)c12` (some centres unmarked) [Example 130], for which the “G12D x-linking (%)” value in experiment [1] is “+ (0 < x ≤ 20)”. The “WT x-linking (%)” value in experiment [2] amounted to 0.
The corresponding values for `Cc1ccnc(C(C)C)c1-n1c(=O)nc(N2[C@H](C)CN(C(=O)[C@H]3CN3)C[C@H]2C)c2cc(F)c(-c3c(O)cccc3F)nc21` [Example 137] are 0 and 0.
On to `Cc1cccc2cccc(N3CCc4c(nc(OC[C@@H]5CCCN5C)nc4N4CC[C@H](NC(=O)[C@H]5CN5)[C@@H](CC#N)C4)C3)c12` [Example 126], for which the “G12D x-linking (%)” value in experiment [1] was “+ (0 < x ≤ 20)”. Further, the “WT x-linking (%)” value in experiment [2] is “+ (0 < x ≤ 20)”.
Consider `Cc1ccnc(C(C)C)c1-n1c(=O)nc(N2C[C@@H](C)N(C(=O)[C@@H]3CN3)C[C@@H]2C)c2cc(F)c(-c3c(O)cccc3F)nc21` [Example 143], for which the “G12D x-linking (%)” value in experiment [1] was 0. The “WT x-linking (%)” value in experiment [2] is 0.

Source of the values: patent US20230100838A1 (Revolution Medicines, Inc., priority 2019, published 2023).
